Legend:
Test in all cases: relative viability (nuclei count vs DMSO), 5 days (fraction); higher = more cells survive
[1] = compound: CN[C@@H]1C[C@H]2O[C@@](C)([C@@H]1OC)n1c3ccccc3c3c4c(c5c6ccccc6n2c5c31)C(=O)NC4 [Staurosporine] + CC1(C)CCC(c2ccc(Cl)cc2)=C(CN2CCN(c3ccc(C(=O)NS(=O)(=O)c4ccc(N[C@H](CCN5CCOCC5)CSc5ccccc5)c(S(=O)(=O)C(F)(F)F)c4)cc3)CC2)C1 [Navitoclax] (partner 0.5 µM)
How it was run: (§1)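 Five library-drug doses in √10 steps were combined with a fixed anchor-drug dose, or a single drug was given alone, by pin tool to lung cancer cell lines in 1536-well plates the day after seeding. Nuclei were stained and counted after 5 days. Relative viability is the nuclei count in treated wells over that in vehicle wells, taken as the median of duplicate plates.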

Sulindac + Linsitinib = compound: CC1=C(CC(=O)O)c2cc(F)ccc2/C1=C\c1ccc([S+](C)[O-])cc1 [Sulindac] + C[C@]1(O)C[C@@H](c2nc(-c3ccc4ccc(-c5ccccc5)nc4c3)c3c(N)nccn32)C1 [Linsitinib] (partner 1 µM)
How it was run: as §1

[2] = compound: O=c1[nH]cc(F)c(=O)[nH]1 [5-Fluorouracil] + Cc1nc(NC(=O)N2CCC[C@H]2C(N)=O)sc1-c1ccnc(C(C)(C)C(F)(F)F)c1 [Alpelisib] (partner 2 µM)
How it was run: as §1

[3] = compound: O=c1[nH]cc(F)c(=O)[nH]1 [5-Fluorouracil] + COc1cc2c(Oc3ccc(NC(=O)C4(C(=O)Nc5ccc(F)cc5)CC4)cc3F)ccnc2cc1OCCCN1CCOCC1 [Foretinib] (partner 0.25 µM)
How it was run: as §1

Cell Line	relative viability ([1]; first compound 0.005 µM)	relative viability ([1]; first compound 0.01581 µM)	relative viability ([1]; first compound 0.05 µM)	relative viability ([1]; first compound 0.1581 µM)	relative viability ([1]; first compound 0.5 µM)	relative viability (Sulindac + Linsitinib; first compound 0.08 µM)	relative viability (Sulindac + Linsitinib; first compound 0.253 µM)	relative viability (Sulindac + Linsitinib; first compound 0.8 µM)	relative viability (Sulindac + Linsitinib; first compound 2.53 µM)	relative viability (Sulindac + Linsitinib; first compound 8 µM)	relative viability ([2]; first compound 0.02 µM)	relative viability ([2]; first compound 0.2 µM)	relative viability ([2]; first compound 0.6325 µM)	relative viability ([2]; first compound 2 µM)	relative viability ([3]; first compound 0.02 µM)	relative viability ([3]; first compound 0.2 µM)	relative viability ([3]; first compound 0.6325 µM)	relative viability ([3]; first compound 2 µM)
NCI-H596	1.11	0.665	0.322	0.179	0.0954	0.943	0.985	0.857	1.12	1.27	0.357	0.449	0.497	0.381	0.76	0.794	0.572	0.488
Calu-6	0.656	0.321	0.233	0.0847	0.0708	1.29	1.07	0.738	1.03	1.11	1.03	0.976	0.684	0.448	0.853	0.941	0.871	0.491
LCLC-103H	–	–	–	–	–	1.18	1.22	0.94	1.04	1.2	0.984	0.983	0.699	0.403	0.845	0.717	0.454	0.267
HCC-15	0.677	–	0.392	0.282	0.183	0.966	0.868	0.739	0.913	0.921	0.921	0.836	0.494	0.29	1.13	0.961	0.583	0.351
H3255	0.172	0.102	0.112	0.0846	0.0541	0.923	1.03	0.745	1.02	1.1	0.721	0.816	0.833	0.496	0.861	1.08	0.872	0.656
NCI-H1915	0.829	–	0.449	0.369	0.26	1.13	1.14	1.09	1.11	1.07	1.04	1.04	0.963	0.83	1.01	1.09	1.06	0.81
NCI-H1563	–	–	–	–	–	1.13	1.15	1.03	1.15	1.31	0.772	0.931	0.821	0.841	0.927	0.909	0.862	0.761
NCI-H650	–	–	–	–	–	0.973	0.87	0.62	0.817	1.23	0.915	0.644	0.523	0.397	0.976	0.617	0.356	0.308
NCI-H2126	0.915	0.624	0.461	0.433	0.339	0.608	0.713	0.661	0.726	0.728	0.668	0.337	0.274	0.272	1.32	0.592	0.399	0.361
NCI-H838	0.307	0.22	0.203	0.161	0.113	1.19	1.06	0.848	1.01	1.2	0.874	0.882	0.484	0.29	1	1.06	0.523	0.317
NCI-H2342	–	–	–	–	–	–	–	–	–	–	–	–	–	–	0.961	1	0.885	0.786
EMC-BAC-2	1.1	0.777	0.172	0.153	0.127	0.894	0.882	0.726	0.809	0.835	0.733	0.773	0.801	0.768	1.1	1.01	1.05	0.963
NCI-H1355	0.975	0.549	0.249	0.28	0.217	0.873	0.949	0.777	0.785	0.883	0.716	0.551	0.372	0.286	0.883	0.681	0.338	0.256
NCI-H2347	0.854	0.524	0.274	0.284	0.225	1.07	1.09	0.982	1.06	1.16	1.09	0.709	0.457	0.447	0.689	0.822	0.453	0.513
HCC-44	0.867	0.28	0.215	0.185	0.13	0.769	0.729	0.707	0.702	0.786	0.824	0.722	0.4	0.267	–	–	–	–
NCI-H661	–	–	–	–	–	0.585	0.564	0.501	0.637	0.711	0.598	1.12	0.597	0.612	1.03	–	1.02	0.972
NCI-H358	–	–	–	–	–	0.777	0.881	0.643	0.661	1.09	0.935	0.817	1.04	0.434	0.71	0.918	0.657	0.308
ChaGo-K-1	0.926	–	0.79	0.29	0.27	–	–	–	–	–	–	–	–	–	0.975	0.874	0.724	0.557
SW 900	–	–	–	–	–	–	–	–	–	–	–	–	–	–	0.629	0.799	0.729	0.569
NCI-H1792	0.735	0.473	0.197	–	0.136	0.557	0.561	–	0.455	0.558	0.691	0.606	0.168	0.116	–	–	–	–
ABC-1	–	–	–	–	–	1.22	0.806	0.627	0.629	0.741	1.11	1.16	0.896	0.92	1.05	1.12	0.991	0.548
NCI-H2170	0.708	0.376	0.421	0.219	0.189	–	–	–	–	–	0.82	0.734	0.472	0.452	1	0.872	0.537	0.44
